Experimental data: article PMC12752563, “Caffeic Acid Acts as a Potent Senomorphic and Alleviates Inflammation and Lung Fibrosis by Covalently Targeting Annexin A5 Protein in Mice” (Exploration, 2025)

Experiments:
Annexin A5 (ANXA5) [1] = biological target: T1, Annexin A5 (ANXA5) (Homo sapiens, UniProt P08758); experiment: in-gel fluorescence after click chemistry; format: binding; conditions: covalent; 12% SDS-PAGE
T1 construct: recombinant protein purified from E. coli; His-tag labelled for MST
T1 sequence (P08758 2-320): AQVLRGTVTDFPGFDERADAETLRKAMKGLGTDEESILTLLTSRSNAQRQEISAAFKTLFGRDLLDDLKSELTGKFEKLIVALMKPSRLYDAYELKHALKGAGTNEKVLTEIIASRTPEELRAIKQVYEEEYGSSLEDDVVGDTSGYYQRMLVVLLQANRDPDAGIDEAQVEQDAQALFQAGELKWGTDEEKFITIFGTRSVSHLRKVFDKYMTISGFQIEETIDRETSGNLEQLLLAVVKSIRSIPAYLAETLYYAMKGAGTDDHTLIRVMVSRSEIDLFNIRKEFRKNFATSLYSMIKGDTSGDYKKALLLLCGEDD

Annexin A5 (ANXA5) [2] = biological target: T1, Annexin A5 (ANXA5); experiment: microscale thermophoresis; format: binding

Kd (Annexin A5 (ANXA5) [2]) [µM]	SMILES	in-gel fluorescence after click chemistry (Annexin A5 (ANXA5) [1])
	C#CCNC(=O)/C=C/c1ccc(O)c(O)c1 [CA probe]	wild‐type ANXA5 could be labeled by CA‐probe
3.68	O=C(O)/C=C/c1ccc(O)c(O)c1 [CA, caffeic acid]	
